Results: ChEMBL document CHEMBL1151554, “Non thiazolidinedione antihyperglycaemic agents. 1: -Heteroatom substituted -phenylpropanoic acids” (Bioorg Med Chem Lett, 1996)

How the values were obtained:
Mus musculus = assay: In vivo inhibition of glucose load induced hyperglycaemia in fasted C57B1/6 ob/ob mice.; type: functional
[1] = target: T1, Peroxisome proliferator-activated receptor gamma (Homo sapiens, UniProt P37231)
T1 sequence (P37231 whole entry): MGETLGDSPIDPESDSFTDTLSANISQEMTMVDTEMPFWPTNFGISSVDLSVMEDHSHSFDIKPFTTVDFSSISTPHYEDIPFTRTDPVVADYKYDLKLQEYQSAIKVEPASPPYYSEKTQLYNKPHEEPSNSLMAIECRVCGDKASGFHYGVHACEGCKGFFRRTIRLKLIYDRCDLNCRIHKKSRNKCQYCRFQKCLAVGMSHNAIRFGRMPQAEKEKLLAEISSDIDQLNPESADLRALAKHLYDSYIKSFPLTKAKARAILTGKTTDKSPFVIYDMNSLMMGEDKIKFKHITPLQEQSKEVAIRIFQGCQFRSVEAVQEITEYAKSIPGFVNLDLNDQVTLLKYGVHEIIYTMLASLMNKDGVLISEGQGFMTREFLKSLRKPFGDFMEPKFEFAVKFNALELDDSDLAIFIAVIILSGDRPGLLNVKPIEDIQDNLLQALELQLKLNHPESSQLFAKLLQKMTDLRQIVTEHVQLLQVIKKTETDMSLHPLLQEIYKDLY
Description: inhibition of [125I]SB 236636 binding to human PPAR gamma receptor

[2] = target: T2, Peroxisome proliferator-activated receptor gamma (Homo sapiens) (UniProt P37231)
T2 sequence (whole entry): T1 sequence (P37231 whole entry)

| SMILES | ED25 (Mus musculus) | Ki [1] | Displacement [2] |
| --- | --- | --- | --- |
| CN(CCOc1ccc(CC(F)C(=O)O)cc1)c1nc2ccccc2o1 (stereo unspecified) | 10 µM/kg | – | – |
| CN(CCOc1ccc(CC(Sc2ccccc2)C(=O)O)cc1)c1nc2ccccc2o1 (stereo unspecified) | 30 µM/kg | 37 nM | – |
| COC(=O)C(Cl)Cc1ccc(OCCN(C)c2nc3ccccc3o2)cc1 (stereo unspecified) | 10 µM/kg | – | – |
| COC(=O)C(Br)Cc1ccc(OCCN(C)c2nc3ccccc3o2)cc1 (stereo unspecified) | 100 µM/kg | – | – |
| CN(CCOc1ccc(CC(S)C(=O)O)cc1)c1nc2ccccc2o1 (stereo unspecified) | 300 µM/kg | – | – |
| COC(=O)C(Cc1ccc(OCCN(C)c2nc3ccccc3o2)cc1)N(C)C (stereo unspecified) | 1000 µM/kg | – | 26% |
| CN(CCOc1ccc(CC(Cl)C(=O)O)cc1)c1nc2ccccc2o1 (stereo unspecified) | 10 µM/kg | – | – |
| CN(CCOc1ccc(CC(OCCc2ccccc2)C(=O)O)cc1)c1nc2ccccc2o1 (stereo unspecified) | 1 µM/kg | – | – |
| CCOC(Cc1ccc(OCCN(C)c2nc3ccccc3o2)cc1)C(=O)O (stereo unspecified) | 0.1 µM/kg | – | – |
| CCCOC(Cc1ccc(OCCN(C)c2nc3ccccc3o2)cc1)C(=O)[O-].[Na+] (stereo unspecified) | 0.3 µM/kg | – | – |
| CN(CCOc1ccc(CC(Nc2ccccc2)C(=O)O)cc1)c1nc2ccccc2o1 (stereo unspecified) | 30 µM/kg | – | – |
| COC(=O)CCc1ccc(OCCN(C)c2nc3ccccc3o2)cc1 | >2000 µM/kg | – | – |
| COC(Cc1ccc(OCCN(C)c2nc3ccccc3o2)cc1)C(=O)O (stereo unspecified) | 3 µM/kg | – | – |
| CNC(Cc1ccc(OCCN(C)c2nc3ccccc3o2)cc1)C(=O)OC (stereo unspecified) | 1000 µM/kg | – | – |
| COC(=O)C(Cc1ccc(OCCN(C)c2nc3ccccc3o2)cc1)Sc1ccccc1 (stereo unspecified) | 30 µM/kg | – | – |
| Cc1c(C)c2c(c(C)c1O)CCC(C)(COc1ccc(CC3SC(=O)NC3=O)cc1)O2 (stereo unspecified) [TROGLITAZONE] | 400 µM/kg | – | – |
| CN(CCOc1ccc(CC2SC(=O)NC2=O)cc1)c1nc2ccccc2o1 (stereo unspecified) [BRL-48482] | 3 µM/kg | – | – |
| COC(=O)C(Cc1ccc(OCCN(C)c2nc3ccccc3o2)cc1)OC(C)C (stereo unspecified) | <0.3 µM/kg | – | – |
| CN(CCOc1ccc(CC(C(=O)O)S(=O)(=O)c2ccccc2)cc1)c1nc2ccccc2o1 (stereo unspecified) | 1000 µM/kg | – | – |
| CN(CCOc1ccc(CC(Oc2ccccc2)C(=O)O)cc1)c1nc2ccccc2o1 (stereo unspecified) | 1 µM/kg | 0.4 nM | – |
| COC(=O)C(Cc1ccc(OCCN(C)c2nc3ccccc3o2)cc1)SC (stereo unspecified) | 100 µM/kg | – | – |
| CN(CCOc1ccc(CC(OCc2ccccc2)C(=O)[O-])cc1)c1nc2ccccc2o1.[Na+] (stereo unspecified) | 0.3 µM/kg | – | – |
| COC(=O)C(Cc1ccc(OCCN(C)c2nc3ccccc3o2)cc1)OC (stereo unspecified) | 3 µM/kg | – | – |
